Experimental findings from patent US9445594B2, “Molecules having certain pesticidal utilities, intermediates, compositions, and processes, related thereto” (priority 2014, dated 2016) are described below.

Common to all, as to assay type: in vivo
In series [1] the test system is Beet Armyworm (Spodoptera exigua, LAPHEG) ("BAW"). As to the kind of experiment: Bioassays on BAW, 128-well diet tray assay. The conditions noted are these: 168 h, second instar larvae, 50 μg/cm^2 on artificial diet, 25° C., five to seven days, average of eight wells, read-out: BAW % Control (or Mortality) rating. Summed up: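 One to five second-instar larvae were placed per well on artificial diet surface-treated with 50 μg/cm^2 compound from 90:10 acetone-water, dried before infestation. Trays were held at 25 °C, 14:10 light-dark, for five to seven days. Percent mortality was averaged over eight wells.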

Series [2] relates to Corn Earworm (Helicoverpa zea, HELIZE) ("CEW"). As to the kind of experiment: Bioassays on CEW, 128-well diet tray assay. The note with it: 168 h, second instar larvae, 50 μg/cm^2 on artificial diet, 25° C., five to seven days, average of eight wells, read-out: CEW % Control (or Mortality) rating. The method, then:
Certain molecules disclosed in this document were tested against BAW, CEW, and CL using procedures described in the following examples. In the reporting of the results, the “BAW, CEW, & CL Rating Table” was used (See Table Section).
Bioassays on CEW were conducted using a 128-well diet tray assay. one to five second instar CEW larvae were placed in each well (3 mL) of the diet tray that had been previously filled with 1 mL of artificial diet to which 50 μg/cm^2 of the test compound (dissolved in 50 μL of 90:10 acetone-water mixture) had been applied (to each of eight wells) and then allowed to dry. Trays were covered with a clear self-adhesive cover, and held at 25° C., 14:10 light-dark for five to seven days. Percent mortality was recorded for the larvae in each well; activity in the eight wells was then averaged. The results are indicated in the table entitled “Table ABC: Biological Results” (See Table Section). Bioassays on CL

Series [3] concerns Green Peach Aphid (Myzus persicae, MYZUPE) ("GPA"). Nature of the series: Bioassays on GPA, foliar spray of infested cabbage seedlings. The note with it: 72 h, 200 ppm spray on cabbage seedlings, graded after three days, Abbott corrected % control, read-out: GPA % Control (or Mortality) rating. The method, then: Certain molecules disclosed in this document were tested against GPA using procedures described in the following example. In the reporting of the results, the “GPA Rating Table” was used (See Table Section).
Cabbage seedlings grown in 3-inch pots, with 2-3 small (3-5 cm) true leaves, were used as test substrate. The seedlings were infested with 20-50 GPA (wingless adult and nymph stages) one day prior to chemical application. Four pots with individual seedlings were used for each treatment. Test compounds (2 mg) were dissolved in 2 mL of acetone/methanol (1:1) solvent, forming stock solutions of 1000 ppm test compound. The stock solutions were diluted 5× with 0.025% Tween 20 in water to obtain the solution at 200 ppm test compound. A hand-held aspirator-type sprayer was used for spraying a solution to both sides of […] leaves until runoff. Reference plants (solvent check) were sprayed with the diluent only containing 20% by volume of acetone/methanol (1:1) solvent. Treated plants were held in a holding room for three days at approximately 25° C. and ambient relative humidity (RH) prior to grading. Evaluation was conducted by counting the number of live aphids per plant under a microscope. Percent Control was measured by using Abbott's correction formula (W. S. Abbott, “A Method of Computing the Effectiveness of an Insecticide” J. Econ. Entomol. 18 (1925), pp. 265-267) as follows. Corrected % Control=100*(X−Y)/X • where • X=No. of live aphids on solvent check plants and • Y=No. of live aphids on treated plants

Series [4] concerns Yellow Fever Mosquito (Aedes aegypti, AEDSAE) ("YFM"). Nature of the series: Bioassays on YFM, 96-well plate larval assay. The conditions noted are these: about 1 day-old larvae, from 4000 ppm DMSO master plate diluted, room temperature, scored after 3 days. The gist of the method: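 Compounds from 4000 ppm DMSO master plates, diluted in 90:10 water:acetone, dispensed into 96-well plates, six replicates. About 1-day-old larvae added in liver-powder water. Wells covered, held 3 days at room temperature, then scored for mortality.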

For series [5], the system named is Cabbage Looper (Trichoplusia ni, TRIPNI) ("CL"). As to the kind of experiment: Bioassays on CL, 128-well diet tray assay. The conditions noted are these: 168 h, second instar larvae, 50 μg/cm^2 on artificial diet, 25° C., five to seven days, average of eight wells, read-out: CL % Control (or Mortality) rating. The gist of the method:
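Second-instar larvae (one to five per well) on artificial diet surface-treated with 50 μg/cm^2 compound in 90:10 acetone-water, eight wells per treatment. Held at 25° C., 14:10 light-dark for five to seven days. Percent mortality scored per well and averaged over the eight wells.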

Consider `CCOc1ccc(NC(=O)Nc2ccc(-c3ncn(-c4ccc(OC(F)(F)F)cc4)n3)cc2)cc1` [F2, 1-(4-ethoxyphenyl)-3-(4-(1-(4-(trifluoromethoxy)phenyl)-1H-1,2,4-triazol-3-yl)phenyl)urea], for which the mortality at 50 µg/cm2 in series [1] and in series [2] was 0% in each case. In addition, the mortality at 200 ppm in series [3] was 0%.

Take `CCOc1ccc(NC(=O)Nc2ccc(-c3ncn(-c4ccc(OC(F)(F)F)cc4)n3)cc2)cn1` [F8, 1-(6-Ethoxypyridin-3-yl)-3-(4-(1-(4-(trifluoromethoxy)phenyl)-1H-1,2,4-triazol-3-yl)phenyl)urea]: the mortality at 50 µg/cm2 in series [1] and in series [2] was 0% each time. Further, in series [3], the mortality at 200 ppm was 0%.

Take `COc1ccc(NC(=O)Nc2ccc(-c3ncn(-c4ccc(OC(F)(F)F)cc4)n3)cc2)cn1` [F10, 1-(6-Methoxypyridin-3-yl)-3-(4-(1-(4-(trifluoromethoxy)phenyl)-1H-1,2,4-triazol-3-yl)phenyl)urea]: the mortality at 50 µg/cm2 in series [1] and in series [2] was 50 to 100% throughout. In series [3], the mortality at 200 ppm lay within 0 to 80%.

`Cc1nc(Cl)ccc1NC(=O)Nc1ccc(-c2ncn(-c3ccc(OC(F)(F)F)cc3)n2)cc1` [F36, 1-(6-Chloro-2-methylpyridin-3-yl)-3-(4-(1-(4-(trifluoromethoxy)phenyl)-1H-1,2,4-triazol-3-yl)phenyl)urea]: the mortality at 50 µg/cm2 in series [1] and in series [2] was 50 to 100% in each case. The mortality at 200 ppm in series [3] lay in the range of 0 to 80%.

Consider `CCOC(=O)c1ccc(NC(=O)Nc2ccc(-c3ncn(-c4ccc(OC(F)(F)F)cc4)n3)cc2)c(C)n1` [F41, Ethyl 6-methyl-5-(3-(4-(1-(4-(trifluoromethoxy)phenyl)-1H-1,2,4-triazol-3-yl)phenyl)ureido)picolinate], for which the mortality at 50 µg/cm2 in series [1] and in series [2] was 0% each time. Moreover, the mortality at 200 ppm in series [3] turned out to be 0%.

Take `CC(C)c1ccccc1NC(=S)Nc1ccc(-c2ncn(-c3ccc(C(F)(F)F)cc3)n2)cc1` [F53, 1-(2-isopropylphenyl)-3-(4-(1-(4-(trifluoromethyl)phenyl)-1H-1,2,4-triazol-3-yl)phenyl)thiourea]: the mortality at 50 µg/cm2 in series [1] and in series [2] was 50 to 100% each time. In addition, in series [3], the mortality at 200 ppm is 0 to 80%. The “YFM % Control (or Mortality) rating” value in series [4] is listed as “A (80-100)”.

As to `FC(F)(F)Oc1ccc(-n2cnc(-c3ccc(NC(=S)Nc4ccccc4Cc4ccccc4)cc3)n2)cc1` [F58, 1-(2-Benzylphenyl)-3-(4-(1-(4-(trifluoromethoxy)phenyl)-1H-1,2,4-triazol-3-yl)phenyl)thiourea], the mortality at 50 µg/cm2 in series [1], in series [5] and in series [2] was 50 to 100% throughout. Besides, the “YFM % Control (or Mortality) rating” value in series [4] is given as “D (No activity noticed in this bioassay)”.

Turning to `CC(C)c1ccccc1NC(=O)NCc1ccc(-c2ncn(-c3ccc(OC(F)(F)F)cc3)n2)cc1` [F65, 1-(2-Isopropylphenyl)-3-(4-(1-(4-(trifluoromethoxy)phenyl)-1H-1,2,4-triazol-3-yl)benzyl)urea], the results for the mortality at 50 µg/cm2 in series [1], in series [5] and in series [2] were 0%, 50 to 100% and 0 to 50%, respectively. In addition, in series [4], the “YFM % Control (or Mortality) rating” value is “D (No activity noticed in this bioassay)”.

Consider `CC(=O)N(C(=S)Nc1cccc(C)c1)c1ccc(-c2ncn(-c3ccc(OC(F)(F)F)cc3)n2)cc1` [F67, N-(m-tolylcarbamothioyl)-N-(4-(1-(4-(trifluoromethoxy)phenyl)-1H-1,2,4-triazol-3-yl)phenyl)acetamide], for which the mortality at 50 µg/cm2 in series [1] is 0 to 50%; in series [2], 0%. Moreover, the mortality at 200 ppm in series [3] was 0%. For the same compound, the “YFM % Control (or Mortality) rating” value in series [4] is listed as “D (No activity noticed in this bioassay)”.

As for `Cc1ccc(C)n1-c1ccccc1NC(=S)Nc1ccc(-c2ncn(-c3ccc(OC(F)(F)F)cc3)n2)cc1` [F75, 1-(2-(2,5-Dimethyl-1H-pyrrol-1-yl)phenyl)-3-(4-(1-(4-(trifluoromethoxy)phenyl)-1H-1,2,4-triazol-3-yl)phenyl)thiourea], the mortality at 50 µg/cm2 in series [1], in series [5] and in series [2] was 50 to 100% in each case. Also, the mortality at 200 ppm in series [3] stood at 0%. Moreover, the “YFM % Control (or Mortality) rating” value in series [4] is on record as “D (No activity noticed in this bioassay)”.

Regarding `COc1ccc(NC(=S)NCc2ccc(-c3ncn(-c4ccc(OC(F)(F)C(F)(F)F)cc4)n3)cc2)cc1` [F110, 1-(4-methoxyphenyl)-3-(4-(1-(4-(perfluoroethoxy)phenyl)-1H-1,2,4-triazol-3-yl)benzyl)thiourea], the figures for the mortality at 50 µg/cm2 in series [1] and in series [2] were 50 to 100% and 0%, respectively. Also, the mortality at 200 ppm in series [3] is 0%. The “YFM % Control (or Mortality) rating” value in series [4] was “D (No activity noticed in this bioassay)”.

As for `COc1ccc(NC(=S)NCc2ccc(-c3ncn(-c4ccc(OC(F)(F)C(F)(F)F)cc4)n3)cc2)c(C)c1` [F111, 1-(4-methoxy-2-methylphenyl)-3-(4-(1-(4-(perfluoroethoxy)phenyl)-1H-1,2,4-triazol-3-yl)benzyl)thiourea], the mortality at 50 µg/cm2 in series [1] and in series [2] was 50 to 100% throughout. In addition, the mortality at 200 ppm in series [3] worked out at 0%. In addition, the “YFM % Control (or Mortality) rating” value in series [4] is listed as “A (80-100)”.

For `CN(C)c1ccc(NC(=S)NCc2ccc(-c3ncn(-c4ccc(OC(F)(F)C(F)(F)F)cc4)n3)cc2)cc1` [F112, 1-(4-(Dimethylamino)phenyl)-3-(4-(1-(4-(perfluoroethoxy)phenyl)-1H-1,2,4-triazol-3-yl)benzyl)thiourea], the mortality at 50 µg/cm2 in series [1] was 0 to 50%; in series [2], 0%. In addition, in series [3], the mortality at 200 ppm was 0%. Besides, the “YFM % Control (or Mortality) rating” value in series [4] is reported as “D (No activity noticed in this bioassay)”.

The mortality is the share of the test organisms that died.
